{"source": "patent US6673823B2", "about": "“Use of peroxisome proliferator activated receptor (PPAR)-γ ligands as a treatment for pituitary tumors and associated conditions, such as Cushing's syndrome” (Cedars-Sinai Medical Center, priority 2002, dated 2004)", "key": {"[1]": {"test_system": "Somatolactotroph (GH3) tumor cells", "test": "Somato-lactotroph tumor growth in athymic nude mice", "assay_type": "in vivo, mouse", "conditions": "oral 150 mg/kg/day, 4 weeks"}, "[2]": {"test_system": "mouse αT3 gonadotroph cells", "test": "Cell cycle distribution (FACS, propidium iodide)", "assay_type": "cell-based", "procedure": "(§1) Cell Culture. […] Medium was replenished with ligands every 2 days, and cells maintained in serum-containing medium or in serum-free medium for up to 96 hours.\n(§2) Cell Cycle Distribution. Following treatments, GH3, αT3, or human pituitary tumor cells were trypsinized, centrifuged (1500 rpm×2 min), washed with PBS, and treated with 20 µg/mL Rnase A (Calbiochem, La Jolla, Cailf.). DNA was stained with 100 μg/ mL propidium iodide (PI) for 30 min at 4° C. and protected from light, prior to analysis with a FACScan (Becton Dickinson, Franklin Lakes, N.J.). DNA histogram analysis was performed using the modFitLT software.\n(§3) To determine the functional significance of pituitary tumor PPAR-γ expression, the effects of PPAR-γ ligands was tested on pituitary tumor cells in vitro. Troglitazone or rosiglitazone-treatment ([…]) of GH3 (PRL- and GH-secreting), and αT3 (gonadotroph-secreting) and human pituitary tumor cells for up to 48 hours, in serum-free conditions, or up to 96 hours, for cells maintained in serum-repleted conditions, induced G0-G1 cell-cycle arrest (GH3: control, G1 75±4% vs. ros, G1 85±2%, p=0.009; αT3: control, G1 67±0.5% vs. ros, G1 75±0.5%, p=0.01), and led to decreased number of cells in S-phase (GH3: control, 18±0.05% vs. ros, 12±0.5%, p=0.001; αT3: control, 31±0.5% vs. ros, 16±2.5%, p=0.03) (FIG. 11A)."}, "[3]": {"test_system": "rat GH3 (PRL- and GH-secreting) cells", "test": "Cell cycle distribution (FACS, propidium iodide)", "assay_type": "cell-based", "procedure": "as §1, §2, §3"}, "[4]": {"test_system": "Mouse gonadotroph pituitary tumor cells (αT3)", "test": "Growth of established gonadotroph tumors in athymic nude mice", "assay_type": "in vivo", "conditions": "oral 150 mg/kg/day for 6 weeks, started 3 weeks post-inoculation; vehicle 3.2±0.76, p=0.005", "description": "As patients invariably present with already established and actively growing pituitary tumors, the effects of TZD treatment were therefore tested on growth of already established pituitary gonadotroph tumors in vivo. Mouse gonadotroph pituitary tumor cells (αT3) were inoculated subcutaneously in athymic nude mice, and tumors allowed to develop."}, "AtT20 cells": {"test_system": "AtT20 cells", "test": "TUNEL apoptosis analysis", "assay_type": "cell-based, mouse", "procedure": "Terminal Deoxynucleotidyltransferase-mediated dUTP Nick End Labeling (TUNEL). Apoptosis-induced nuclear DNA fragmentation was detected using the in situ cell death detection kit, TMR red (Roche Diagnostics, Indianapolis, IN) following the manufacturer's protocol. Briefly, 48 hours following treatment with thiazolidinedione compounds (TZDs), AtT20 cells were fixed in 4% paraformaldehyde, permeabilized with 0.1% sodium citrate/ 0.6% Tween 20 (pH 7.4) for 2 min at 4° C. prior to incubation in Tunel reaction mix (TMR red/dNTP mix, TdT, and labeling buffer) for 60 min at 37° C. Slides were washed (3×5 min) in PBS/ Triton/ BSA (0.3%) and visualized on an Olympus BH2 immunofluorescent microscope."}, "[5]": {"test_system": "normal athymic Nu/Nu mice", "conditions": "150 mg/kg for 6 weeks", "description": "A person first presented 2 years ago with bruising, skin striae, 70 lb weight gain and hypertension. Evaluation confirmed the diagnosis of Cushing's syndrome due to an ACTH-secreting pituitary tumor, which was resected by transsphenoidal surgery. The patient presented again one year later with weight gain, labile hypertension, diabetes and confirmed recurrence of Cushing's syndrome."}, "[6]": {"test_system": "patient with Cushing's syndrome", "test": "24 hour urinary free cortisol excretion in a patient with Cushing's syndrome", "assay_type": "in vivo, human", "conditions": "8 mg daily, one patient, vs. baseline, p<0.02"}, "[7]": {"test_system": "Mouse corticotroph pituitary tumor cells (AtT20)", "test": "Growth of established corticotroph tumors in athymic nude mice", "assay_type": "in vivo", "conditions": "oral 150 mg/kg/day, 3 weeks", "description": "The effects of TZD treatment were therefore tested on growth of already established pituitary corticotroph tumors, and steroid hormone levels in vivo. Mouse corticotroph pituitary tumor cells (AtT20) were innoculated subcutaneously in athymic nude mice, and tumors allowed to develop. […] Baseline serum ACTH and corticosterone levels, and tumor volumes were not different in the groups subsequently randomized as control or treated groups (data not shown, p=ns). […] All animals were euthanized at 6 weeks. The phenotypic appearance of the mice was strikingly different, and vehicle-treated mice were wasted, developed skin atrophy and appeared pigmented, with features of hypercorticolism (FIG. 8B)."}, "[8]": {"test_system": "Mouse corticotroph AtT20 pituitary tumor cells", "test": "Prevention of subcutaneous corticotroph tumor development in athymic nude mice", "assay_type": "in vivo", "conditions": "oral 150 mg/kg/day, 4 weeks"}, "human patients": {"test_system": "human patients", "conditions": "cited from earlier work"}, "[9]": {"test_system": "gonadotroph tumor cells (LβT2)", "test": "Gonadotroph tumor growth in nude mice", "assay_type": "in vivo, mouse", "conditions": "oral 150 mg/kg/day, 6 weeks", "description": "FIG. 14A is a representative picture of a rosiglitazone-treated mouse (“Ros”) and an untreated (control) mouse 4 weeks following commencement of administration of treatment. The untreated (control) mouse in the picture developed numerous large visible tumors.\nIn separate parallel similarly conducted studies, gonadotroph tumor cells (LβT2) were innoculated in mice as above."}}, "data": [{"compound": "CN(CCOc1ccc(CC2SC(=O)NC2=O)cc1)c1ccccn1", "note": "(racemic) [rosiglitazone, (±)-5-[[4-[2-(methyl-2-pyridinylamino)ethoxy]phenyl]methyl]-2,4-thiazolidinedione,(Z)-2-butenedioate]", "values": [{"measurement": "tumor diameter", "setting": "[1]", "result": "1-2 cm"}, {"measurement": "tumor weight", "setting": "[1]; control 0.13±0.01, p=0.008", "result": "0.04 ± 0.01", "unit": "g"}, {"measurement": "serum GH", "setting": "[1]; control 545±153, p=0.03", "result": "114 ± 66", "unit": "ng/mL"}, {"measurement": "serum PRL", "setting": "[1]; control 656±289, p=ns", "result": "95 ± 58", "unit": "ng/mL"}, {"measurement": "cells in S-phase", "setting": "[2]; control 31±0.5%, p=0.03", "result": "16±2.5", "unit": "%"}, {"measurement": "cells in G1 (G0-G1 cell-cycle arrest)", "setting": "[2]; control 67±0.5%, p=0.01", "result": "75±0.5", "unit": "%"}, {"measurement": "cells in S-phase", "setting": "[3]; control 18±0.05%, p=0.001", "result": "12±0.5", "unit": "%"}, {"measurement": "cells in G1 (G0-G1 cell-cycle arrest)", "setting": "[3]; up to 48 h serum-free or up to 96 h serum-repleted, control 75±4%, p=0.009", "result": "85±2", "unit": "%"}, {"measurement": "final tumor weight of established tumors", "setting": "[4]", "result": "0.76 ± 0.29", "unit": "g"}, {"measurement": "% apoptosis (TUNEL)", "setting": "AtT20 cells; 10^−5 M, control 33±3%, p<0.001", "result": "69±7", "unit": "%"}, {"measurement": "% apoptosis (TUNEL)", "setting": "AtT20 cells; 10^−6 M, control 33±3%, p<0.001", "result": "47±4", "unit": "%"}, {"measurement": "increase in apoptosis (TUNEL)", "setting": "AtT20 cells; 48 hours after treatment, vs. control", "result": 2, "unit": "fold"}, {"measurement": "% apoptosis (TUNEL)", "setting": "AtT20 cells; CRH 50 nM & ros 10^−5 M (pre-treatment before CRH), p<0.05 vs CRH", "result": "19±3", "unit": "%"}, {"measurement": "serum corticosterone, treated vs. untreated normal mice", "setting": "[5]; unstressed and stressed (data not shown)", "result": "similar"}, {"measurement": "Plasma ACTH, baseline (unstressed), Mean±SEM", "setting": "[5]; controls 434±40, p=ns", "result": "474 ± 33", "unit": "pg/mL"}, {"measurement": "Plasma ACTH, stress-induced (15 minutes restraint), Mean±SEM", "setting": "[5]; controls 5278±312, p=ns", "result": "4764 ± 292", "unit": "pg/mL"}, {"measurement": "decrease of 24 hour urinary free cortisol excretion (UFC)", "setting": "[6]; after 2 weeks", "result": 33, "unit": "%"}, {"measurement": "decrease of 24 hour urinary free cortisol excretion (UFC)", "setting": "[6]; after 3 weeks", "result": 55, "unit": "%"}, {"measurement": "reduction in plasma ACTH", "setting": "[7]; vs. controls", "result": 75, "unit": "%"}, {"measurement": "reduction in serum corticosterone levels", "setting": "[7]; vs. controls", "result": 96, "unit": "%"}, {"measurement": "plasma ACTH, mean±SEM", "setting": "[7]; controls 3841±308, p=0.002", "result": "978 ± 452", "unit": "pg/mL"}, {"measurement": "serum corticosterone, mean±SEM", "setting": "[7]; controls 4304±2593, p<0.05", "result": "181 ± 56", "unit": "ng/mL"}, {"measurement": "tumor diameter", "setting": "[8]; control 1-2 cm", "result": 0.1, "unit": "cm"}, {"measurement": "serum corticosterone, mean±SEM", "setting": "[8]; vehicle 785±374, p<0.05", "result": "113 ± 17", "unit": "ng/mL"}, {"measurement": "plasma ACTH, mean±SEM", "setting": "[8]; vehicle 2085±847, p<0.05", "result": "98 ± 33", "unit": "pg/mL"}, {"measurement": "tolerability in humans", "setting": "human patients; About 20 milligrams per day, sustained periods of time", "result": "without adverse effects"}, {"measurement": "clinical surveillance, safety", "setting": "human patients; more than 4500 patients with type 2 diabetes", "result": "safe, effective"}, {"measurement": "tumor weight", "setting": "[9]; control 3.44±0.42, P<0.002", "result": "0.81 ± 0.19", "unit": "g"}, {"measurement": "plasma LH", "setting": "[9]; control 69±19, p=0.004", "result": "6.8 ± 1.0", "unit": "ng/mL"}]}]}
